GI50 and TGI data for nine compounds are collected here from PubChem BioAssay (NCI).

Among the test systems are EKVX NSCLC; HCT-116 colon; IGROV1 ovarian; KM12 colon; NCI-H23 lung; SN12C renal; SW-620 colon; U251 CNS; UACC-257 melanoma; UACC-62 melanoma.
What all share (experiment): growth of human tumour cells (NCI), 48 h

Structures are written as SMILES.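 Briefly, cells in 96-well plates were exposed to five compound concentrations for 48 h, and endpoints were estimated by linear interpolation. GI50 = concentration required for 50% inhibition of growth. TGI: total growth inhibition.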

`[Cl][Hg][c]1cc[c]([Hg][Cl])o1`: the GI50 in the assay on EKVX NSCLC was 2.78 µM; in the assay on HCT-116 colon, 6.4 µM; in the assay on IGROV1 ovarian it was 1.93 µM; in the assay with KM12 colon, 10.6 µM; with NCI-H23 lung it was 7.91 µM; in the assay with SN12C renal it was 2.25 µM. For the same compound, the GI50 is 1.32 µM in the assay on SW-620 colon, 0.737 µM with U251 CNS, 7.93 µM with UACC-257 melanoma and 3.46 µM in the assay with UACC-62 melanoma. Further, the TGI was 28.1 µM with EKVX NSCLC; 20.7 µM with HCT-116 colon; 10.1 µM with IGROV1 ovarian; 24.4 µM with KM12 colon; 92.1 µM in the assay with NCI-H23 lung; 12.9 µM in the assay with SN12C renal. Besides, the TGI in the assay with SW-620 colon was 3.23 µM; with U251 CNS it was 2.46 µM; with UACC-257 melanoma it was 28.8 µM; with UACC-62 melanoma, 16.2 µM.

As for `Cc1ncc(C(=O)Nc2ccc(CN3CCN(C)CC3)c(C(F)(F)F)c2)cc1C#Cc1cnc(N)c2ccncc12`, the GI50 in the assay with EKVX NSCLC is 1.14 µM; in the assay on HCT-116 colon, 1.19 µM; with IGROV1 ovarian it was 0.152 µM; in the assay on KM12 colon, 0.441 µM; in the assay on NCI-H23 lung it was 1.34 µM; in the assay on SN12C renal it was 0.616 µM. Also, the GI50 in the assay on SW-620 colon was 1.49 µM; in the assay with U251 CNS, 1.55 µM; in the assay on UACC-257 melanoma, 1.64 µM; in the assay with UACC-62 melanoma, 1.4 µM. In addition, the TGI in the assay with EKVX NSCLC stood at 3.38 µM; with HCT-116 colon, 2.56 µM; in the assay with IGROV1 ovarian, 1.42 µM; with KM12 colon, 1.82 µM; in the assay with NCI-H23 lung it was 3.35 µM; in the assay on SN12C renal, 3.77 µM. Also, the TGI was found to be 3.3 µM in the assay with SW-620 colon, 3.35 µM in the assay with U251 CNS, 3.33 µM in the assay on UACC-257 melanoma and 2.9 µM in the assay with UACC-62 melanoma.

For the compound `Oc1cccnc1[Se]`, the TGI with EKVX NSCLC is 80.2 µM; in the assay with HCT-116 colon, greater than 100 µM; in the assay with IGROV1 ovarian it was greater than 100 µM; in the assay with KM12 colon, greater than 100 µM; in the assay with NCI-H23 lung, greater than 100 µM; in the assay with SN12C renal, greater than 100 µM. For the same compound, the TGI in the assay with SW-620 colon, in the assay on U251 CNS, in the assay with UACC-257 melanoma and in the assay with UACC-62 melanoma was greater than 100 µM each time.

Take `O=C(c1ccccc1)c1cc2ccccc2o1`: the GI50 with EKVX NSCLC is 32.6 µM; in the assay on HCT-116 colon, 62.7 µM; in the assay on IGROV1 ovarian, 25.4 µM; in the assay on KM12 colon it was greater than 100 µM; in the assay on NCI-H23 lung, greater than 100 µM; in the assay on SN12C renal it was greater than 100 µM. The GI50 is 80 µM in the assay with SW-620 colon, 54.5 µM in the assay with U251 CNS, 77.9 µM with UACC-257 melanoma and greater than 100 µM in the assay with UACC-62 melanoma. For the same compound, the TGI in the assay on EKVX NSCLC, in the assay on HCT-116 colon, in the assay with IGROV1 ovarian, with KM12 colon, in the assay on NCI-H23 lung and in the assay on SN12C renal was greater than 100 µM each time. Also, the TGI in the assay on SW-620 colon, in the assay on U251 CNS, with UACC-257 melanoma and with UACC-62 melanoma was greater than 100 µM in each case.

For the compound `CC(C)Oc1ccc2cc(-c3nn(CC4CCNCC4)c4ncnc(N)c34)ccc2c1`, the GI50 is 13.6 µM in the assay with EKVX NSCLC; 6.78 µM in the assay on HCT-116 colon; 11.1 µM in the assay with IGROV1 ovarian; 12.6 µM in the assay with KM12 colon; 11.3 µM with NCI-H23 lung; 11.8 µM in the assay with SN12C renal. In addition, the GI50 is 13.2 µM in the assay on SW-620 colon, 9.02 µM in the assay on U251 CNS, 1.95 µM in the assay on UACC-257 melanoma and 6.41 µM in the assay with UACC-62 melanoma. In addition, the TGI in the assay with EKVX NSCLC amounted to 26.9 µM; in the assay on HCT-116 colon it was 19.8 µM; in the assay on IGROV1 ovarian, 24.8 µM; in the assay on KM12 colon it was 26.4 µM; with NCI-H23 lung, 25.8 µM; in the assay on SN12C renal, 24.8 µM. Besides, the TGI in the assay with SW-620 colon was 26.8 µM; in the assay with U251 CNS, 21.7 µM; in the assay with UACC-257 melanoma it was 3.98 µM; in the assay with UACC-62 melanoma, 20.4 µM.

Take `CCCc1nc(NC#N)nc(C(=O)Nc2ccccc2)c1CC`: the TGI with EKVX NSCLC, in the assay with HCT-116 colon, with IGROV1 ovarian, with KM12 colon, in the assay with NCI-H23 lung and with SN12C renal was greater than 100 µM in each case. Moreover, the TGI in the assay with SW-620 colon, in the assay with U251 CNS, in the assay with UACC-257 melanoma and in the assay with UACC-62 melanoma was greater than 100 µM throughout.

Take `COc1ccc2[nH]cc(C3(c4c[nH]c5ccc(OC)cc45)C(=O)Nc4ccc(F)cc43)c2c1`: the GI50 in the assay with EKVX NSCLC is 2.35 µM; in the assay with HCT-116 colon it was 1.76 µM; with IGROV1 ovarian, 2.64 µM; in the assay with KM12 colon, 2.58 µM; in the assay with NCI-H23 lung, 2.43 µM; with SN12C renal it was 2.97 µM. In addition, the GI50 is 3.04 µM in the assay on SW-620 colon, 2.58 µM with U251 CNS, 2.2 µM in the assay on UACC-257 melanoma and 1.98 µM with UACC-62 melanoma. The TGI with EKVX NSCLC came out at 8.07 µM; with HCT-116 colon it was 3.16 µM; with IGROV1 ovarian, 12.6 µM; in the assay on KM12 colon it was 6.96 µM; in the assay with NCI-H23 lung, 8.06 µM; with SN12C renal, 12.1 µM. The TGI with SW-620 colon amounted to 11.5 µM; in the assay with U251 CNS it was 8.83 µM; in the assay with UACC-257 melanoma, 6.23 µM; in the assay on UACC-62 melanoma, 6.1 µM.

On to `O=C1/C(=C/c2ccc3c(c2)OCO3)SC2C=Nc3ccccc3N12` (stereo not given), for which the TGI in the assay on EKVX NSCLC, in the assay with HCT-116 colon, in the assay with IGROV1 ovarian, in the assay on KM12 colon, with NCI-H23 lung and with SN12C renal was greater than 100 µM in each case. In addition, the TGI in the assay on SW-620 colon, with U251 CNS, in the assay with UACC-257 melanoma and in the assay on UACC-62 melanoma was greater than 100 µM in each case.

Take `O=C(O)Cc1cc(Cl)ccc1O`: the TGI in the assay on EKVX NSCLC, in the assay on HCT-116 colon, in the assay on IGROV1 ovarian, with KM12 colon, in the assay on NCI-H23 lung and with SN12C renal was greater than 100 µM each time. For the same compound, the TGI in the assay on SW-620 colon, in the assay on U251 CNS, in the assay with UACC-257 melanoma and in the assay on UACC-62 melanoma was greater than 100 µM in each case.
